# According to US5151413A (American Home Products Corporation, priority 1991, dated 1992):
# pIC50: −log10 of the molar value. Where two headings read alike, the source gives them in different places.
# Columns and labels:
# [1] = test system: Candida albicans ATCC 10231; assay: Anti-Candida activity, plate test procedure, strain ATCC 10231; type: cell-based; details: ATCC10231, read-out: Anti-Candida Activity, Minimal Inhibitory Concentration (MIC)
# Description: (§1) Antifungal activity of the compounds of this invention was measured against 5 strains of Candida albicans using a plate test procedure for measurement of inhibition. The following represents the typical procedure used. Compound to be tested was placed on sterile dried 1/4" plate disks, and allowed to dry. Agar plates were seeded with fungi and allowed to solidify. The impregnated disks were placed on the seeded Agar surface and incubated for the time required for the particular culture. Results are expressed in MIC (μg/ml) to inhibit growth.
# [2] = test system: thymocyte proliferation (cells from the thymus of normal BALB/c mice); assay: comitogen-induced thymocyte proliferation procedure (LAF); type: cell-based; details: read-out: LAF IC50
# Description: Immunosuppressive activity was evaluated in an in vitro standard pharmacological test procedure to measure lymphocyte proliferation (LAF) and in an in vivo procedure in which the survival time of a pinch skin graft was evaluated.
# The comitogen-induced thymocyte proliferation procedure (LAF) was used as an in vitro measure of the immunosuppressive effects of representative compounds. Briefly, cells from the thymus of normal BALB/c mice are cultured for 72 hours with PHA and IL-1 and pulsed with tritiated thymidine during the last six hours. […] Cells are harvested and incorporated; radioactivity is determined. Inhibition of lymphoproliferation is assessed in percent change in counts per minute from non-drug treated controls. […] [formula]
# [3] = test system: Candida albicans ATCC 38247; assay: Anti-Candida activity, plate test procedure, strain ATCC 38247; type: cell-based; details: ATCC38247, read-out: Anti-Candida Activity, Minimal Inhibitory Concentration (MIC)
# Description: as §1
# [4] = test system: Candida albicans ATCC 38248; assay: Anti-Candida activity, plate test procedure, strain ATCC 38248; type: cell-based; details: ATCC38248, read-out: Anti-Candida Activity, Minimal Inhibitory Concentration (MIC)
# Description: as §1
# [5] = test system: Candida albicans ATCC 38246; assay: Anti-Candida activity, plate test procedure, strain ATCC 38246; type: cell-based; details: ATCC38246, read-out: Anti-Candida Activity, Minimal Inhibitory Concentration (MIC)
# Description: as §1
# [6] = test system: pinch skin grafts from male DBA/2 donors transplanted to male BALB/c recipients; assay: survival time of pinch skin grafts (in vivo); set-up: species or system BALB/c mice; details: intraperitoneal; DBA/2 donors to BALB/c recipients
# Description: The recipients are treated with either varying concentrations of cyclosporin A as test control or the test compound, intraperitoneally. Untreated recipients serve as rejection control. The graft is monitored daily and observations are recorded until the graft becomes dry and forms a blackened scab. This is considered as the rejection day.
# Candida albicans 3669 = assay: Anti-Candida activity, plate test procedure, strain 3669; type: cell-based; details: read-out: Anti-Candida Activity, Minimal Inhibitory Concentration (MIC)
# Description: as §1
# Candida albicans = details: especially against Candida albicans; cited from earlier work
# immune response = details: cited from earlier work
# [7] = Mus musculus, Thymocyte, thymocytes cultured 72 hours with PHA and IL-1, tritiated thymidine last six hours
Molecule,MIC [1],"pIC50 [2, 7]",MIC [3],MIC [4],MIC [5],"Skin Graft, mean survival days [6]",MIC (Candida albicans 3669),antifungal activity (in words) (Candida albicans),"pIC50 ([2]; Mus musculus, Thymocyte)",inhibition of the immune response (in words) (immune response),"pIC50 ([2]; thymocytes cultured 72 hours with PHA and IL-1, tritiated thymidine last six hours)"
"CO[C@H]1C[C@@H]2CC[C@@H](C)[C@@](O)(O2)C(=O)C(=O)N2CCCC[C@H]2C(=O)O[C@H]([C@H](C)C[C@@H]2CC[C@@H](O)[C@H](OC)C2)CC(=O)[C@H](C)/C=C(\C)[C@@H](OC(C)(C)OC)[C@@H](OC)C(=O)[C@H](C)C[C@H](C)/C=C/C=C/C=C/1C [Example 1, 31-[O-(1-Methoxy-1-methyl)ethyl]rapamycin]",0.025 µg/mL,8.49,0.025 µg/mL,0.1 µg/mL,0.4 µg/mL,10.7 days,0.4 µg/mL,,,,
"CO[C@H]1C[C@@H]2CC[C@@H](C)[C@@](O)(O2)C(=O)C(=O)N2CCCC[C@H]2C(=O)O[C@H]([C@H](C)C[C@@H]2CC[C@@H](O)[C@H](OC)C2)CC(=O)[C@H](C)/C=C(\C)[C@@H](O)[C@@H](OC)C(=O)[C@H](C)C[C@H](C)/C=C/C=C/C=C/1C [Rapamycin, reference compound]",0.03 µg/mL,,0.03 µg/mL,0.006 µg/mL,0.25 µg/mL,,0.25 µg/mL,profound antifungal activity,8.24 to 8.48,inhibit the immune response,
31-[O-[2-(trimethylsilyl)ethoxylmethyl]rapamycin [Example 3],,,,,,,,,,,7.76
"CO[C@H]1C[C@@H]2CC[C@@H](C)[C@@](O)(O2)C(=O)C(=O)N2CCCC[C@H]2C(=O)O[C@H]([C@H](C)C[C@@H]2CC[C@@H](OC(C)(C)OC)[C@H](OC)C2)CC(=O)[C@H](C)/C=C(\C)[C@@H](O)[C@@H](OC)C(=O)[C@H](C)C[C@H](C)/C=C/C=C/C=C/1C [Example 2, 42-[O-(1-methoxy-1-methyl)ethyl]rapamycin]",0.025 µg/mL,8.08,0.025 µg/mL,0.1 µg/mL,0.4 µg/mL,,0.2 µg/mL,,,,
